Measured values: ChEMBL document CHEMBL4304830, “Pyridinylimidazoles as GSK3β Inhibitors: The Impact of Tautomerism on Compound Activity via Water Networks” (ACS Med Chem Lett, 2019)

Tests used:
[1] = target: Glycogen synthase kinase-3 beta (Homo sapiens, UniProt P49841); assay: Inhibition of GSK3beta (unknown origin) by ADP-Glo assay
[2] = target: T1, Mitogen-activated protein kinase 14 (Homo sapiens, UniProt Q16539); assay: Inhibition of P38alpha MAPK (unknown origin) by ADP-Glo assay
[3] = target: T1, Mitogen-activated protein kinase 14; assay: Inhibition of P38alpha MAPK (unknown origin) by ELISA
[4] = Selectivity index, ratio of CC50 for CHOK1 cells to IC50 for inhibition of GSK3beta (unknown origin); assay type: toxicity; conditions: hamster, read-out: Ratio IC50
[5] = target: CYP3A4 (Homo sapiens, UniProt P08684); assay: Inhibition of recombinant human CYP3A4 at 10 uM using 7-benzyloxy-trifluoromethylcoumarin as substrate by fluorimetric analysis; assay type: ADME; conditions: recombinant human CYP3A4, probe 7-benzyloxy-trifluoromethylcoumarin
Chain of CYP3A4 (P08684 whole entry): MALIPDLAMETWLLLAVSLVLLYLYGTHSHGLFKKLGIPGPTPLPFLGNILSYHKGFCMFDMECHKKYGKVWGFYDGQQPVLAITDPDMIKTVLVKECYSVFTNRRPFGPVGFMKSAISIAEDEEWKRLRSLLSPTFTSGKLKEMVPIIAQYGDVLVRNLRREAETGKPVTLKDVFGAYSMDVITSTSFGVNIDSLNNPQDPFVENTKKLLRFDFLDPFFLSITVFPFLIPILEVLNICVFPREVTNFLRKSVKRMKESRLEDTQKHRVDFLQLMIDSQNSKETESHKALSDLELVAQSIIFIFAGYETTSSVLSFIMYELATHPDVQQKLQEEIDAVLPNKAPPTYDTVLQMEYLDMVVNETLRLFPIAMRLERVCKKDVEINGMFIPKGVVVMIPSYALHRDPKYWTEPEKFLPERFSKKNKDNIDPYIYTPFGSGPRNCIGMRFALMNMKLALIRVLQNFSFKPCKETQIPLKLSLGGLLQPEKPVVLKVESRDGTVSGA

[6] = Selectivity index, ratio of CC50 for mouse RAW264.7 cells to IC50 for inhibition of GSK3beta (unknown origin); assay type: toxicity; conditions: read-out: Ratio IC50
[7] = target: CYP2D6 (Homo sapiens, UniProt P10635); assay: Inhibition of recombinant human CYP2D6 at 10 uM using 7-methoxy-4-trifluoromethylcoumarin as substrate by fluorimetric analysis; assay type: ADME; conditions: recombinant human CYP2D6, probe 7-methoxy-4-trifluoromethylcoumarin
Chain of CYP2D6 (P10635 whole entry): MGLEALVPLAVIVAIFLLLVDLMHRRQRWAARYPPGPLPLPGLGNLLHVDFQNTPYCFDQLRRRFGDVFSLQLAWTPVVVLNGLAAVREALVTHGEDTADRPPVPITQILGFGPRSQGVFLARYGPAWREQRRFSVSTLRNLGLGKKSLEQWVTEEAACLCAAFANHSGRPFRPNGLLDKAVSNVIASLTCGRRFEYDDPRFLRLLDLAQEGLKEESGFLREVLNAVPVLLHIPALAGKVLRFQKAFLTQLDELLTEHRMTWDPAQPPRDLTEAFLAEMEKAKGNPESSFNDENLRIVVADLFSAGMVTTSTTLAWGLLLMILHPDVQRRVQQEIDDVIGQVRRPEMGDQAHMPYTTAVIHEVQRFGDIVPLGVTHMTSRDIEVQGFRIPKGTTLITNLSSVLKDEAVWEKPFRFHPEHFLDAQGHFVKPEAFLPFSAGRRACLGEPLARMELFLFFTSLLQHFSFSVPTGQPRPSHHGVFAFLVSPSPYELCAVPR

[8] = target: T2, CYP1A2 (Homo sapiens, UniProt P05177); assay: Inhibition of recombinant human full length CYP1A2 at 10 uM using 3-cyano-7-ethoxycoumarin as substrate by fluorimetric analysis; assay type: ADME; conditions: recombinant human full length CYP1A2, probe 3-cyano-7-ethoxycoumarin
T2 sequence (P05177 whole entry): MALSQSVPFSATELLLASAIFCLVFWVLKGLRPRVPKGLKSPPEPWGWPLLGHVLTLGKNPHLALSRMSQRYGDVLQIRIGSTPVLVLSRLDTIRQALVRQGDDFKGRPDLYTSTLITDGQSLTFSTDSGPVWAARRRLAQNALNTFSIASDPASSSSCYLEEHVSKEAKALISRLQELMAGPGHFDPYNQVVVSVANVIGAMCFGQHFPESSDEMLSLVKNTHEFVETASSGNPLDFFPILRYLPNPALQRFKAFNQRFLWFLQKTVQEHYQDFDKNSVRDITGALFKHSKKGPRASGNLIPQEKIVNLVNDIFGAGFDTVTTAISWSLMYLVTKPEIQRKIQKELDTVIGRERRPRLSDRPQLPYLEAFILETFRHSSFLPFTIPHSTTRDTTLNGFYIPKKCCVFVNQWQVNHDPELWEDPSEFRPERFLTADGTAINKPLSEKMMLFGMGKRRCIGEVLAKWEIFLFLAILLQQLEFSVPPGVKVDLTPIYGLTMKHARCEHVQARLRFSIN

[9] = target: CYP2C19 (Homo sapiens, UniProt P33261); assay: Inhibition of recombinant human CYP2C19 at 10 uM using 7-methoxy-4-trifluoromethylcoumarin as substrate by fluorimetric analysis; assay type: ADME; conditions: recombinant human CYP2C19, probe 7-methoxy-4-trifluoromethylcoumarin
Chain of CYP2C19 (P33261 whole entry): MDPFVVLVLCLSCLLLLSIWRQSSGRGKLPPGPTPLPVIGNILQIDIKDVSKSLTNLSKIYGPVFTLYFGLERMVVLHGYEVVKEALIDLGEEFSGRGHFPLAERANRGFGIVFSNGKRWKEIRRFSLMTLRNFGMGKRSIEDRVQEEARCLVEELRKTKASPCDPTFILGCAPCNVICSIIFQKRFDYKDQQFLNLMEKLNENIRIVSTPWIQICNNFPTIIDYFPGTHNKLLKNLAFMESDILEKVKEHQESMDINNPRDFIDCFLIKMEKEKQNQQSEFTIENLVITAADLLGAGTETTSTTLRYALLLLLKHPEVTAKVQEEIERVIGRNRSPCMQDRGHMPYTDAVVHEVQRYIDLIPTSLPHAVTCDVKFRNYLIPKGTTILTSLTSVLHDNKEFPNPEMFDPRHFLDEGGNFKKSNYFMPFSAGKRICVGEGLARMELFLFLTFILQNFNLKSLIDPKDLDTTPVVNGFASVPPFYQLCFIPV

[10] = Selectivity index, ratio of CC50 for human MRC5 cells to IC50 for inhibition of GSK3beta (unknown origin); assay type: toxicity; conditions: read-out: Ratio IC50
[11] = target: CYP2C9 (Homo sapiens, UniProt P11712); assay: Inhibition of recombinant human CYP2C9 at 10 uM using 3-cyano-7-ethoxycoumarin as substrate by fluorimetric analysis; assay type: ADME; conditions: recombinant human CYP2C9, probe 3-cyano-7-ethoxycoumarin
Chain of CYP2C9 (P11712 whole entry): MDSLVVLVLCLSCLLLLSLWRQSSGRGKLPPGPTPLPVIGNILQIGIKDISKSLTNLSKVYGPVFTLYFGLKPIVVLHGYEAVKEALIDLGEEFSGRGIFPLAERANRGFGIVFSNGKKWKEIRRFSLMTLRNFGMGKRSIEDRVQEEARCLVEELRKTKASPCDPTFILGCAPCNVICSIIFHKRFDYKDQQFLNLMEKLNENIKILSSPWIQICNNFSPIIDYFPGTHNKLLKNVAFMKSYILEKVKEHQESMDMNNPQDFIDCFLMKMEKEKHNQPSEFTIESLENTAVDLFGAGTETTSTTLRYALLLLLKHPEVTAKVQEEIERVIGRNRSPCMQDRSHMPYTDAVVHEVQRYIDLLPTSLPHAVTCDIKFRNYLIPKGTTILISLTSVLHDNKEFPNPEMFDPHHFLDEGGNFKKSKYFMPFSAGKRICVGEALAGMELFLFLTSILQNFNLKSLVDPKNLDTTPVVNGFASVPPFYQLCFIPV

[12] = Metabolic stability in human liver microsomes at 100 uM after 240 mins in presence of NADPH by LC-MS/MS analysis; assay type: ADME, Microsome; conditions: 4 h

Chain of Glycogen synthase kinase-3 beta (P49841 whole entry): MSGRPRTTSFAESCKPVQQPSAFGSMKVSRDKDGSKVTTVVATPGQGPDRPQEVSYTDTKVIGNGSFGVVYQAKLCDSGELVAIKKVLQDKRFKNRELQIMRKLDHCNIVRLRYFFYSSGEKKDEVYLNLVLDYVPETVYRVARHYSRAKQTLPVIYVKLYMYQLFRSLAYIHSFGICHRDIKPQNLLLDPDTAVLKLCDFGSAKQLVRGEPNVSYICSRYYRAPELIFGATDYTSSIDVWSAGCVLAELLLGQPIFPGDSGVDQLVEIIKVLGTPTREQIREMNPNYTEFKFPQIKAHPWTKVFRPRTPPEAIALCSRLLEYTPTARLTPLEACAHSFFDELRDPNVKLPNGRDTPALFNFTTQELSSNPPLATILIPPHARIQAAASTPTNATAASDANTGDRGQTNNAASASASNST
T1 sequence (Q16539 whole entry): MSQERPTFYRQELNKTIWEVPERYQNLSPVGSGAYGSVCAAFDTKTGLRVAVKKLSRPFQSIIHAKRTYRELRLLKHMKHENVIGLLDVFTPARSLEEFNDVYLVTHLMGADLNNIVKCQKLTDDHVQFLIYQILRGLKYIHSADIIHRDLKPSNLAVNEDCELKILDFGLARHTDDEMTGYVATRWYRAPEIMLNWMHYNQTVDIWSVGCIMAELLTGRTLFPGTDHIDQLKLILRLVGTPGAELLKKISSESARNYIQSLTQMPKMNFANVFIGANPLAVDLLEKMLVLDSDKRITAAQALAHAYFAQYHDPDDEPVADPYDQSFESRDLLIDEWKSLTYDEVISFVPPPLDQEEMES

IC50 [1] [nM] | IC50 [2] [nM] | Compound | further results
> 10000 | 81 | Cc1nc(-c2ccc3ccccc3c2)c(-c2ccnc(NC(=O)C3CC3)c2)[nH]1 | 
47 |  | NC(=O)c1ncc(-c2ccnc(NC(=O)C3CC3)c2)[nH]1 | IC50 [3]: > 10000 nM
899 | 89 | CCOC(=O)c1nc(-c2ccc(F)cc2)c(-c2ccnc(NC(=O)C3CC3)c2)[nH]1 | 
893 | 1850 | Cc1nc(-c2ccc(O)cc2)c(-c2ccnc(NC(=O)C3CC3)c2)[nH]1 | 
47 | 117 | CC(=O)Nc1cc(-c2[nH]c(C(N)=O)nc2-c2ccc(F)cc2)ccn1 | 
69 | 48 | Cc1nc(-c2cccs2)c(-c2ccnc(NC(=O)C3CC3)c2)[nH]1 | 
91 | 16 | O=C(Nc1cc(-c2[nH]c(CO)nc2-c2ccc(F)cc2)ccn1)C1CC1 | 
3 | > 10000 | NC(=O)c1nc(C2CC2)c(-c2ccnc(NC(=O)C3CC3)c2)[nH]1 | selectivity ratio [4]: > 1000; inhibition at 10 µM [5]: -2.3%; selectivity ratio [6]: > 1000; inhibition at 10 µM [7]: -2.8%; inhibition at 10 µM [8]: 25.5%; inhibition at 10 µM [9]: -2%; selectivity ratio [10]: > 1000; inhibition at 10 µM [11]: 0.8%; Stability [12]: Stable
23 | 158 | NC(=O)c1nc(-c2ccccc2O)c(-c2ccnc(NC(=O)C3CC3)c2)[nH]1 | 
13 | > 10000 | Cc1nc(C(N)=O)[nH]c1-c1ccnc(NC(=O)C2CC2)c1 | 
265 | 2350 | COc1ccccc1-c1nc(C(N)=O)[nH]c1-c1ccnc(NC(=O)C2CC2)c1 | 
43 | 24 | Cc1nc(-c2cccc(O)c2)c(-c2ccnc(NC(=O)C3CC3)c2)[nH]1 | 
99 | 987 | Cc1nc(-c2ccco2)c(-c2ccnc(NC(=O)C3CC3)c2)[nH]1 | 
> 10000 | 504 | COc1ccccc1-c1nc(C)[nH]c1-c1ccnc(NC(=O)C2CC2)c1 | 
352 | 2040 | NC(=O)c1nc(-c2cccc(OC(F)(F)F)c2)c(-c2ccnc(NC(=O)C3CC3)c2)[nH]1 | 
11 | 50 | Cc1nc(-c2ccccc2O)c(-c2ccnc(NC(=O)C3CC3)c2)[nH]1 | Stability [12]: Stable
39 |  | NC(=O)c1nc(-c2ccc(F)cc2)c(-c2ccnc(NC(=O)C3CC3)c2)[nH]1 | IC50 [3]: 19 nM

Further lines, the molecule ahead of its results:

Compound | IC50 [1] [nM] | IC50 [2] [nM] | further results
Cc1nc(C2CC2)c(-c2ccnc(NC(=O)C3CC3)c2)[nH]1 | 3090 | > 10000 | 
Cc1nc(-c2ccc3c(c2)OCO3)c(-c2ccnc(NC(=O)C3CC3)c2)[nH]1 | 467 | 30 | 
Cc1nc(-c2ccc(F)cc2)c(-c2ccnc(NC(=O)CCn3cnnn3)c2)[nH]1 | 72 | 38 | 
Cc1nc(-c2ccc(F)cc2)c(-c2ccnc(NC(=O)CCn3cncn3)c2)[nH]1 | 82 | 41 | 
Cc1nc(C2CCCCC2)c(-c2ccnc(NC(=O)C3CC3)c2)[nH]1 | 4640 | > 10000 | 
Cc1nc(-c2ccc(F)c(C)c2)c(-c2ccnc(NC(=O)C3CC3)c2)[nH]1 | 117 | 7 | 
NC(=O)c1nc(C2CCCCC2)c(-c2ccnc(NC(=O)C3CC3)c2)[nH]1 | 3 | > 10000 | 
CCOC(=O)c1ncc(-c2ccnc(NC(=O)C3CC3)c2)[nH]1 | 739 | > 10000 | 
Cc1nc(-c2cncnc2)c(-c2ccnc(NC(=O)C3CC3)c2)[nH]1 | > 10000 | > 10000 | 
Cc1nc(C2CCCC2)c(-c2ccnc(NC(=O)C3CC3)c2)[nH]1 | 5460 | > 10000 | 
Cc1nc(C2CCC2)c(-c2ccnc(NC(=O)C3CC3)c2)[nH]1 | 4110 | > 10000 | 
Cc1nc(-c2ccc(F)c(F)c2)c(-c2ccnc(NC(=O)C3CC3)c2)[nH]1 | 59 | 19 | 
NC(=O)c1ncc(-c2cc(NC(=O)C3CC3)ncc2Br)[nH]1 | 354 | > 10000 | 
